Data from patent US20140163050A1, “Use of 1H-quinazoline-2,4-diones” (priority 2011, published 2014).
Values joined by “and” are separate entries in the source; they are usually repeats but may differ in a detail not shown here. Identical values can stand only once. “Also recorded” adds a separate entry of the source.

What was measured:
patients with PSE = assay: IPS/PPR proof of concept study: suppression of PPR or reduction of SPR after single oral doses; assay type: in vivo, human; parameters: key to Maximum reduction of SPR: Overall reduction, Median: SPR steps (number of frequencies eliciting PPR), range 0-14; details: for duration of maintained suppression of PPR: 2 individual patients; for PD effect of C7 / Effect maintained: reduction of SPR (≧3) / Effect maintained: suppression of PPR / Onset Time of reduction of SPR (≧3) / Onset Time of suppression of PPR: individual patients
Experimental: In patients with photosensitive epilepsy, a standardized photoparoxysmal response range (SPR) may be determined by performing the IPS with a standardized series of flash frequencies, for instance 14 frequencies from a range of 2 to 60 Hz. SPR is a dimensionless parameter and is defined as the number of frequencies (steps) between the lowest and highest frequencies, e.g. between 2 and 60 Hz, that consistently elicit a PPR. If 14 frequencies are tested, the minimum and maximum possible SPR values are 0 and 14. Zero means complete abolition of reactivity on any stimulation frequency, i.e. complete abolishment of the PPR. SPR is relatively stable for each patient and reflects the liability for seizures in daily life. The potential efficacy of an AED could be assessed by measuring hourly changes in the SPR after a single oral dose given to the PSE patients.
The study used the IPS/PPR paradigm. It was a multicenter, non-randomized, single blind, within-subject, placebo-controlled proof of concept study conducted to assess the effect of single oral doses of the compounded formula C-7 in suppressing the photoparoxysmal response (PPR) or reducing the standardized photoparoxysmal response range (SPR) in patients with PSE. Photosensitivity was detected using electroencephalography (EEG) measurements of subjects exposed to Intermittent Photic Stimulation (IPS). This EEG response was a photoparoxysmal response (PPR). For the purpose of the study, provocation of PPRs by IPS, not of seizures, was required. The SPR of each patient was the number of standard visual stimulation frequencies (in Hertz) that the patient was sensitive to, between the lower and upper thresholds. 14 frequencies were tested (from 2 to 60 Hertz). The time of onset and the duration of response (PPR suppression or SPR reduction) to the treatment with Compound C-7 in patients with PSE and the maximal reduction in SPR in patients with PSE were also evaluated.
Women of child-bearing potential (WOCBP) were asked to use acceptable methods of contraception. Patients with an SPR value of 3 or less at the screening and patients with no consistent PPR (less than 3 SPR steps difference between the two evaluations required) when stimulated by intermittent photic stimulation (IPS), as determined by comparison between screening and pre-dose Day 1, were excluded from the study. Furthermore subjects with history of status epilepticus and/or regular use of benzodiazepines as rescue medication, subjects with evidence or history of any medically significant cardiac, respiratory, hepatic, gastrointestinal, renal, hematologic, oncologic or progressive neurological disorder, requiring current medical intervention/therapy likely to have a significant impact on the outcome of this study, were also excluded.
There were three periods: a screening period for the assessment of patient's eligibility for participation in the study; a 3-day in hospital treatment period with single-blind dosing with placebo on days 1 and 3, and the compound of formula C-7 on day 2; and a study completion period consisting of a follow-up call by the medical investigator to the patient between day 10 and day 14 inclusive and a full study completion visit between day 29 and day 33 inclusive.
The dose of the compound of formula C-7 in Cohort studies I, II and III was 50, 100 and 15 mg respectively.

[1] = PK of concomitant AEDs on co-administration of C-7; assay type: in vivo, human; details: C-7 on Day 2; AED PK profiles Day 1 vs Days 2 and 3
Experimental: Similar AEDs concentration-time profiles were observed on Days 1, 2 and 3 for each patient. Two of the patients in Cohort I were also enrolled in Cohort II. Their lamotrigine PK profiles were similar in the 2 treatment periods. These observations confirm stable pre-existing treatment for all the patients.
AED concentrations were listed and summarized; analysis of level of exposure of AED(s) taken by the patient was performed on an ad-hoc basis as it depended on specifics of the AED.

CC(C)c1cc2[nH]c(=O)n(NS(C)(=O)=O)c(=O)c2cc1-c1ccnn1C [Compound C-7, N-[7-Isopropyl-6-(2-methyl-2H-pyrazol-3-yl)-2,4-dioxo-1,4-dihydro-2H-quinazolin-3-yl]-methanesulfonamide]
magnitude of the post-treatment effect between doses (patients with PSE; 15, 50, 100 mg): dose dependent
PD effect compared to C-7 50 and 100 mg dose groups (patients with PSE; C-7 15 mg dose group): numerically markedly lower PD effect; also recorded: numerically lower but still measurable PD effect
proportion of subjects with suppression of PPR (patients with PSE; C-7 15 mg dose group): 33%
patients with complete suppression of PPR (patients with PSE; C-7 15 mg dose group (Cohort III), Day 2): 1 out of 3 and 1 of 3
maintenance of SPR response and PPR suppression (patients with PSE; C-7 15 mg group): none of the patients maintained the SPR response; also recorded: neither the SPR response nor suppression of PPR was maintained
onset of suppression of PPR post dosing (patients with PSE; C-7 15 mg group, one patient, eye open only, not maintained): 2 h
Maximum reduction of SPR: Overall reduction, Mean (SD) (patients with PSE; C-7 15 mg, eye closed, n=3): 6.7 (1.15)
Maximum reduction of SPR: Overall reduction, Median (patients with PSE; C-7 15 mg, eye closed, n=3): 6.0
Maximum reduction of SPR: Reduction from predose Day 2, Mean (SD) (patients with PSE; C-7 15 mg, eye closed, n=3): 5.0 (3.61)
Maximum reduction of SPR: Reduction from predose Day 2, Median (patients with PSE; C-7 15 mg, eye closed, n=3): 6.0
Maximum reduction of SPR: Overall reduction, Mean (SD) (patients with PSE; C-7 15 mg, eye closure, n=3): 8.0 (1.73)
Maximum reduction of SPR: Overall reduction, Median (patients with PSE; C-7 15 mg, eye closure, n=3): 9.0
Maximum reduction of SPR: Reduction from predose Day 2, Mean (SD) (patients with PSE; C-7 15 mg, eye closure, n=3): 7.3 (2.89)
Maximum reduction of SPR: Reduction from predose Day 2, Median (patients with PSE; C-7 15 mg, eye closure, n=3): 9.0
Maximum reduction of SPR: Overall reduction, Mean (SD) (patients with PSE; C-7 15 mg, eyes open, n=3): 4.0 (3.46)
Maximum reduction of SPR: Overall reduction, Median (patients with PSE; C-7 15 mg, eyes open, n=3): 2.0
Maximum reduction of SPR: Reduction from predose Day 2, Mean (SD) (patients with PSE; C-7 15 mg, eyes open, n=3): 3.0 (4.36)
Maximum reduction of SPR: Reduction from predose Day 2, Median (patients with PSE; C-7 15 mg, eyes open, n=3): 1.0
AUECt on Day 2 compared to Day 1 (patients with PSE; C-7 50 mg and 100 mg dose groups, all eye conditions): significantly lower
proportion of subjects with suppression of PPR (patients with PSE; C-7 50 mg dose group): 50%
patients with complete suppression of PPR (patients with PSE; C-7 50 mg dose group (Cohort I), Day 2): 3 of 6
patients with reductions of the SPR range by at least 3 steps in at least one eye condition (patients with PSE; C-7 50 mg dose group (Cohort I, 6 patients), Day 2): 6 patients
duration of maintained suppression of PPR (patients with PSE; C-7 50 mg group): 2 h and 7 h
Maximum reduction of SPR: Overall reduction, Mean (SD) (patients with PSE; C-7 50 mg, eye closed, n=6): 6.0 (2.37)
Maximum reduction of SPR: Overall reduction, Median (patients with PSE; C-7 50 mg, eye closed, n=6): 6.0
Maximum reduction of SPR: Reduction from predose Day 2, Mean (SD) (patients with PSE; C-7 50 mg, eye closed, n=6): 5.0 (2.00)
Maximum reduction of SPR: Reduction from predose Day 2, Median (patients with PSE; C-7 50 mg, eye closed, n=6): 5.0
Maximum reduction of SPR: Overall reduction, Mean (SD) (patients with PSE; C-7 50 mg, eye closure, n=6): 7.7 (3.01)
Maximum reduction of SPR: Overall reduction, Median (patients with PSE; C-7 50 mg, eye closure, n=6): 8.5
Maximum reduction of SPR: Reduction from predose Day 2, Mean (SD) (patients with PSE; C-7 50 mg, eye closure, n=6): 6.5 (2.95)
Maximum reduction of SPR: Reduction from predose Day 2, Median (patients with PSE; C-7 50 mg, eye closure, n=6): 7.5
Maximum reduction of SPR: Overall reduction, Mean (SD) (patients with PSE; C-7 50 mg, eyes open, n=6): 6.8 (2.99)
Maximum reduction of SPR: Overall reduction, Median (patients with PSE; C-7 50 mg, eyes open, n=6): 7.5
Maximum reduction of SPR: Reduction from predose Day 2, Mean (SD) (patients with PSE; C-7 50 mg, eyes open, n=6): 4.8 (3.43)
Maximum reduction of SPR: Reduction from predose Day 2, Median (patients with PSE; C-7 50 mg, eyes open, n=6): 6.5
proportion of subjects with suppression of PPR (patients with PSE; C-7 100 mg dose group): 75%
time to maximum reduction of SPR compared to the other 2 dose groups (patients with PSE; C-7 100 mg dose group): shorter
patients with complete suppression of PPR (patients with PSE; C-7 100 mg dose group (Cohort II), Day 2): 3 out of 4 and 3 of 4
duration of maintained suppression of PPR (patients with PSE; C-7 100 mg group): 4 h and 3 h
Maximum reduction of SPR: Overall reduction, Mean (SD) (patients with PSE; C-7 100 mg, eye closed, n=4): 7.5 (2.38)
Maximum reduction of SPR: Overall reduction, Median (patients with PSE; C-7 100 mg, eye closed, n=4): 8.5
Maximum reduction of SPR: Reduction from predose Day 2, Mean (SD) (patients with PSE; C-7 100 mg, eye closed, n=4): 6.5 (2.38)
Maximum reduction of SPR: Reduction from predose Day 2, Median (patients with PSE; C-7 100 mg, eye closed, n=4): 6.5
Maximum reduction of SPR: Overall reduction, Mean (SD) (patients with PSE; C-7 100 mg, eye closure, n=4): 9.3 (2.22)
Maximum reduction of SPR: Overall reduction, Median (patients with PSE; C-7 100 mg, eye closure, n=4): 10.0
Maximum reduction of SPR: Reduction from predose Day 2, Mean (SD) (patients with PSE; C-7 100 mg, eye closure, n=4): 8.3 (1.50)
Maximum reduction of SPR: Reduction from predose Day 2, Median (patients with PSE; C-7 100 mg, eye closure, n=4): 9.0
Maximum reduction of SPR: Overall reduction, Mean (SD) (patients with PSE; C-7 100 mg, eyes open, n=4): 8.8 (2.50)
Maximum reduction of SPR: Overall reduction, Median (patients with PSE; C-7 100 mg, eyes open, n=4): 8.5
Maximum reduction of SPR: Reduction from predose Day 2, Mean (SD) (patients with PSE; C-7 100 mg, eyes open, n=4): 7.0 (1.41)
Maximum reduction of SPR: Reduction from predose Day 2, Median (patients with PSE; C-7 100 mg, eyes open, n=4): 6.5
maximum duration of maintenance of suppression of PPR (patients with PSE; C-7 50 and 100 mg dose groups): 7 h
duration of maintained SPR response (maximum duration of maintenance) (patients with PSE; C-7 50 and 100 mg dose groups, patients staying in responding status): 33 h
PD effect of C7 (patients with PSE; Cohort I, C-7 50 mg single oral dose): Suppression of PPR^e; also recorded: Reduction of SPR (≧3)
Effect maintained: reduction of SPR (≧3) (patients with PSE; Cohort I, C-7 50 mg): No (4×) and Yes (2×)
Effect maintained: suppression of PPR (patients with PSE; Cohort I, C-7 50 mg): No (2×) and Yes (2×)
Onset Time of reduction of SPR (≧3) (patients with PSE; Cohort I, C-7 50 mg): 2 h (2×) and 1 h (3×)
Onset Time of suppression of PPR (patients with PSE; Cohort I, C-7 50 mg): 2 h and 3 h and 4 h
PD effect of C7 (patients with PSE; Cohort II, C-7 100 mg single oral dose): Suppression of PPR; also recorded: Reduction of SPR (≧3)
Effect maintained: reduction of SPR (≧3) (patients with PSE; Cohort II, C-7 100 mg): No (3×) and Yes
Effect maintained: suppression of PPR (patients with PSE; Cohort II, C-7 100 mg): Yes (2×) and No
Onset Time of reduction of SPR (≧3) (patients with PSE; Cohort II, C-7 100 mg): 1 h (3×) and 2 h
Onset Time of suppression of PPR (patients with PSE; Cohort II, C-7 100 mg): 2 h (2×) and 3 h
PD effect of C7 (patients with PSE; Cohort III, C-7 15 mg single oral dose): Suppression of PPR^e; also recorded: Reduction of SPR (≧3)
Effect maintained: reduction of SPR (≧3) (patients with PSE; Cohort III, C-7 15 mg): No
Effect maintained: suppression of PPR (patients with PSE; Cohort III, C-7 15 mg): No
Onset Time of reduction of SPR (≧3) (patients with PSE; Cohort III, C-7 15 mg): 1 h
Onset Time of suppression of PPR (patients with PSE; Cohort III, C-7 15 mg): 2 h
patients with reductions of the SPR range by at least 3 steps in at least one eye condition (patients with PSE; Cohorts II and III (100 mg and 15 mg, 7 patients), Day 2): 7 patients
patients who showed suppression of PPR (Table 2 count) (patients with PSE; all dose groups, 13 patients, includes suppression noted already at 0 hours): 9 patients
patients with complete suppression of PPR (patients with PSE; all three dose groups (15, 50, 100 mg)): 7 of the 13 and 7 of 13
impact of concomitant treatment with selected AEDs on the PD effect of C-7 (patients with PSE; valproate, lamotrigine, levetiracetam, topiramate, zonisamide as concomitant AEDs): did not appear to relevantly impact the PD effect
effect of co-administration of C-7 on the AED PK [1]: did not seem to affect the AED PK; also recorded: did not seem to affect the PK of selected AEDs; also recorded: did not appear to affect the AED PK
